{
  "source": "paper PMC3706879",
  "about": "“The neurotrophic compound J147 reverses cognitive impairment in aged Alzheimer's disease mice” (Alzheimer's Research & Therapy, 2013)",
  "key": {"[1]": {"molecular_target": "T1, monoamine oxidase B (MAO B) (Homo sapiens, UniProt P27338)", "T1 sequence (P27338 1-520)": "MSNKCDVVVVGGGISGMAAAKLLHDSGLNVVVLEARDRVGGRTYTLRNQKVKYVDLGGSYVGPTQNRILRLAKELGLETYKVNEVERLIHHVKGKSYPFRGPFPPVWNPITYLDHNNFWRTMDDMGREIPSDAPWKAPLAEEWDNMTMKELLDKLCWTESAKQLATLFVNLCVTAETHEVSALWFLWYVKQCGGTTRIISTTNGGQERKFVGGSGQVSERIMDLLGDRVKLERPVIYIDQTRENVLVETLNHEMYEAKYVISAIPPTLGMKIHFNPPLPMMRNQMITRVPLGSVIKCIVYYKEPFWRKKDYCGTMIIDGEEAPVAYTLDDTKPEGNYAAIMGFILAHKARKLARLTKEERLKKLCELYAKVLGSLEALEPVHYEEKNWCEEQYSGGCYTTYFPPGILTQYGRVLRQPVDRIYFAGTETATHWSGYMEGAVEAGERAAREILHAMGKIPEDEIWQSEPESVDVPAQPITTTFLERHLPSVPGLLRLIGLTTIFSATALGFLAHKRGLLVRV", "experiment": "monoamine oxidase B assay (MDS Pharma Services)", "assay_type": "biochemical", "procedure": "All screening was done at 10 μM J147 by various contract research organizations (CROs), including MDS Pharma Services (King of Prussia, PA, USA), Ricerca, now Panlabs (Concord, OH, USA), Ambit (La Jolla, CA, USA), Caliper (Hopkinton, MA, USA) and NovaScreen Biosciences (Hanover, MD, USA) by standard protocols described in their catalogs."}, "huAPP/PS1 mice": {"test_system": "huAPP/PS1 mice", "experiment": "fear conditioning assay in aged huAPP/PS1 mice", "assay_type": "in vivo", "settings": "200 ppm in food for three months", "procedure": "(§1) The APPswe/PS1ΔE9 transgenic mice have been previously characterized. The line 85 mice carry two transgenes, the mouse/human chimeric APP/Swe, linked to Swedish FAD and human PS1ΔE9. At 20 months of age both male and female transgenic mice were fed a high fat diet (Harlan Tekland, Madison, WI, USA) with and without J147 (200 ppm, 10 mg/kg/day). Treatment continued for three months and was followed by behavior testing and sacrifice of mice for tissue harvesting. […] (Data not shown).\nFear conditioning to either a cue or a context represents a form of associative learning. The read-out that is measured in contextual and cued fear conditioning is a freezing response that occurs following the pairing of an unconditioned stimulus (US), such as a foot shock, with a conditioned stimulus (CS), such as a particular context or cue (tone). The mouse will freeze if it remembers and associates that environment with the aversive stimulus. […] On Day 2, the time spent freezing is measured over the entire time in the chamber. […] The percentage of time spent freezing by each mouse is averaged per group and then groups can be compared and P-values calculated to determine statistical significance. On Day 3, the percentage of time spent freezing during the two tones is averaged per group, and then groups can be compared and P-values calculated to determine statistical significance. […]"}, "mice": {"test_system": "mice", "settings": "mouse, in vivo"}, "[2]": {"experiment": "body weights and food consumption of aged APPswe/PS1ΔE9 mice", "assay_type": "in vivo", "settings": "20-month-old APPswe/PS1ΔE9 mice, 200 ppm (10 mg/kg/day) in food, three months, measured weekly", "procedure": "as §1"}, "[3]": {"test_system": "BACE, APP, NGF, BDNF, Homer-1, Egr3, phosphorylated CREB", "experiment": "Western blotting of hippocampal or entorhinal cortex tissue of aged huAPP/PS1 mice", "assay_type": "in vivo", "procedure": "as §1\nHippocampal and entorhinal cortex tissue samples were homogenized in 10 volumes of RIPA lysis buffer (50 mM Tris, pH 7.5, 150 mM NaCl, 0.1% sodium dodecyl sulfate and 0.5% deoxycholate, and 1% NP40) containing a cocktail of protease and phosphatase inhibitors ([…] each of pepstatin A, aprotinin, phosphoramidon, and leupeptin; 0.5 mM 4-(2-aminoethyl) benzenesulfonyl fluoride hydrochloride; 1 mM EGTA; 5 mM fenvalerate; and 5 mM cantharidin). Samples were sonicated (2 × 10 s) and centrifuged at 100,000 × g for 60 minutes at 4°C. Protein concentrations in the cell extracts were determined using the BCA protein assay (Pierce supplied by Thermo Fisher Scientific, Rockford, IL, USA). Equal amounts of protein were solubilized in 2.5x SDS-sample buffer, separated on 12% SDS-polyacrylamide gels, transferred to Immobulin P and immunoblotted with the antibodies indicated in the Materials section. For Western blots, protein levels were normalized to actin levels. An unpaired t test was performed to compare between two groups at a single time point. When comparing multiple groups, one-way ANOVA followed by a Tukey's post hoc test was used. All statistical analysis was conducted using GraphPad Instat software."}, "CYP450 3A4": {"molecular_target": "CYP450 3A4 (Homo sapiens, UniProt P08684)", "sequence (P08684 whole entry)": "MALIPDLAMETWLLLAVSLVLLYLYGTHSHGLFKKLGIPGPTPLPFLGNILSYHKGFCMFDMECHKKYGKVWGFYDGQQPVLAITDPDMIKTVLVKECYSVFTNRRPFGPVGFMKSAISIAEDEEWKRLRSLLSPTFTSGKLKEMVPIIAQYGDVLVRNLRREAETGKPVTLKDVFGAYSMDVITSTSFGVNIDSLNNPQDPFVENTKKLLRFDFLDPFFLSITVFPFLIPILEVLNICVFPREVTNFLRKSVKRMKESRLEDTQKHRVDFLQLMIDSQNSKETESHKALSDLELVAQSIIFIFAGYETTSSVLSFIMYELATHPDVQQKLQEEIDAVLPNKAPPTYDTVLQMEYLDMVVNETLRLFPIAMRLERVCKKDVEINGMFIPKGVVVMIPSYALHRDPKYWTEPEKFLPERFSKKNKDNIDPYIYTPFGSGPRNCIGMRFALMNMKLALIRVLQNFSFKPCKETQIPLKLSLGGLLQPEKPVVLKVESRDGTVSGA"}, "[4]": {"settings": "hippocampus, vs control huAPP/PS1 mice"}},
  "data": [
    {"molecule": "COc1cccc(/C=N/N(C(=O)C(F)(F)F)c2ccc(C)cc2C)c1", "note": "[J147, (E)-N-(2,4-dimethylphenyl)-2,2,2-trifluoro-N'-(3methoxybenzyli-dene) acetohydrazide]", "values": [
      {"measurement": "inhibition, monoamine oxidase B", "setting": "[1]; 10 μM J147", "result": "greater than 60%"},
      {"measurement": "EC50", "setting": "[1]; dose response, re-assay after screening", "result": 1880, "unit": "nM"},
      {"measurement": "contextual fear conditioning, freezing Day 2", "setting": "huAPP/PS1 mice", "result": "rescued"},
      {"measurement": "cued fear conditioning, freezing Day 3", "setting": "huAPP/PS1 mice", "result": "no significant difference between the groups"},
      {"measurement": "addiction", "setting": "mice", "result": "no addiction"},
      {"measurement": "mouse body weights and food consumption", "setting": "[2]", "result": "no significant differences between the groups"},
      {"measurement": "protein level of β-secretase (BACE)", "setting": "[3]; RIPA soluble fraction, hippocampus, vs untreated AD mice", "result": "significantly reduced"},
      {"measurement": "phosphorylated CREB", "setting": "[3]; entorhinal cortex", "result": "significantly increased"},
      {"measurement": "mature BDNF protein level", "setting": "[3]; hippocampus", "result": "increase"},
      {"measurement": "proBDNF protein level", "setting": "[3]; hippocampus", "result": "increase"},
      {"measurement": "ratio of pro- to mature BDNF", "setting": "[3]; hippocampus", "result": "decreased"},
      {"measurement": "ratio of proNGF to mature NGF", "setting": "[3]; hippocampus", "result": "decreased significantly"},
      {"measurement": "Egr3 level", "setting": "[3]; hippocampus, aged AD mice", "result": "significantly increased"},
      {"measurement": "Homer-1 levels", "setting": "[3]; hippocampus, aged AD mice", "result": "significantly increased"},
      {"measurement": "mature NGF level", "setting": "[3]; [4]", "result": "increases"},
      {"measurement": "proNGF level", "setting": "[3]; [4]", "result": "increases"},
      {"measurement": "APP protein levels", "setting": "[3]; soluble fractions of hippocampus, vs control AD mice", "result": "significantly increased"},
      {"measurement": "CYP450 3A4 assays (CYP450 inhibition)", "setting": "CYP450 3A4", "result": "negative"}
    ]}
  ]
}
